Counter-ions that a name gives are not always drawn.
| Compound | melting point |
| --- | --- |
| N#Cc1cnc(Nc2cc(N3CCN(CC(=O)O)CC3)ncn2)s1 (as salt: TFA) [Compound 26-3, (4-{6-[(5-cyano-1,3-thiazol-2-yl)amino]pyrimidin-4-yl}piperazin-1-yl)acetic acid] | 285 to 287 °C (dec.) |
| c1ccc(-c2cnc(Nc3ccncn3)s2)cc1 [Compound 1-3, (5-Phenyl-thiazol-2-yl)-pyrimidin-4-yl-amine] | > 250 °C |

From patent publication US7115597B2, “Tyrosine kinase inhibitors” (Merck & Co., Inc., priority 2000, dated 2006)
